Results from patent US20240091209A1, “COMPOSITIONS AND METHODS FOR TREATMENT OF HIDRADENITIS SUPPURATIVA” (SUZHOU KINTOR PHARMACEUTICALS, INC., priority 2021, published 2024).
“Also recorded” adds a separate entry of the source.

Legend:
[1] = men and women; cited from earlier work
[2] = Adverse events in the Proxalutamide HS study; assay type: in vivo, human; conditions: 200 mg q.d. for 7 days; 2 subjects
Procedure: (§1) Overview: Four subjects, 2 males and 2 females, were recruited to the Proxalutamide HS study. At baseline (day 0) all subjects were diagnosed by a dermatologist with HS Hurley Stage 3. All subjects presented HS in the axilla region. Two subjects (1 male and 1 female) were treated for 7 days with Proxalutamide monotherapy 200 mg daily and two subjects were treated for 7 days with Proxalutamide placebo monotherapy 200 mg daily
(§2) Results: Following 7 days of treatment with Proxalutamide 200 mg q.d., all four subjects returned to the clinic to be assessed by a dermatologist. On day 7 both subjects treated with Proxalutamie were diagnosed by a dermatologist with HS Hurley Stage 1. […] On day 7 both subjects treated with Proxalutamie placebo were diagnosed by a dermatologist with HS Hurley Stage 3.

[3] = tested on: hidradenitis suppurativa (HS); assay: Study of Proxalutamide for the treatment of HS (Hurley Stage after 7 days); assay type: in vivo, human
Procedure: as §1
Efficacy Endpoint: Hurley Stage following 7 days of treatment.
Formula: Proxalutamie 200 mg q.d.
as §2

androgen receptor (AR) = target: T1, androgen receptor (AR) (Homo sapiens, UniProt P10275); conditions: clinical evidence, no details given; cited from earlier work
T1 sequence (P10275 1-920): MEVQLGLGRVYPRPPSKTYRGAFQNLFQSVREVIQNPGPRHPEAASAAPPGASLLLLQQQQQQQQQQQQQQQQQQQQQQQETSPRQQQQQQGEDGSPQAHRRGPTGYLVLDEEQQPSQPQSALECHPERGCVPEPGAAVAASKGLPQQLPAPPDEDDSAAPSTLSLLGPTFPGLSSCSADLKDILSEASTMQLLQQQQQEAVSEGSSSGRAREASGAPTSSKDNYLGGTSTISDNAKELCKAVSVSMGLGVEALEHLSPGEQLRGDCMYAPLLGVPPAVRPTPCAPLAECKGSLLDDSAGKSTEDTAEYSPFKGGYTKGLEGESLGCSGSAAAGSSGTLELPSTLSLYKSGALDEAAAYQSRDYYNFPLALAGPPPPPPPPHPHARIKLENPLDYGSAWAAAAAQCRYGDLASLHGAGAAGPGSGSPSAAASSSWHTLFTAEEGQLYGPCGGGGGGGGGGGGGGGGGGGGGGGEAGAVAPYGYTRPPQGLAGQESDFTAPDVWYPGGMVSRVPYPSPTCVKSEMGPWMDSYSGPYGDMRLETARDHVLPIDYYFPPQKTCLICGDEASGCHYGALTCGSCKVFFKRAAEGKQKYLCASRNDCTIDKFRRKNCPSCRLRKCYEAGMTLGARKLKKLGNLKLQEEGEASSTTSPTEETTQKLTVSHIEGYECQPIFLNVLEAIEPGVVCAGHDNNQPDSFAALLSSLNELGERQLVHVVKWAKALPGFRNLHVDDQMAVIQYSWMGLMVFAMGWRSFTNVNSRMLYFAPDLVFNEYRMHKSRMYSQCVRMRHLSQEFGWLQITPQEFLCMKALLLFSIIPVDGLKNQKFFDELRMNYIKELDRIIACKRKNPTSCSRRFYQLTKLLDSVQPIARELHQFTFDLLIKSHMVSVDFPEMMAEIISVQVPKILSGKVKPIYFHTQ

[4] = tested on: hidradenitis suppurativa (HS); conditions: 24 female patients; ethinyloestradiol 50 μg + cyproterone acetate 50 mg vs ethinyloestradiol 50 μg + norgestrel 500 μg; positive benefits in both groups; cited from earlier work

Structure (SMILES) | Safety in Phase II studies [1] | Adverse events reported by the subjects [2] | HS Hurley Stage diagnosed by a dermatologist on day 7 ([3]; 200 mg q.d. monotherapy for 7 days, 2 subjects (1 male, 1 female), axilla, baseline Hurley Stage 3, placebo subjects stayed at Stage 3) | Severity of HS compared to the placebo ([3]; within 7 days, 200 mg q.d.) | Effect on AR expression and activity (androgen receptor (AR)) | Benefit in HS versus ethinyloestradiol plus norgestrel [4]
CC1(C)C(=O)N(c2ccc(C#N)c(C(F)(F)F)c2F)C(=S)N1c1ccc(CCCc2ncco2)nc1 [Proxalutamide, proxalutamide] | safe in both men and women | No adverse events; also recorded: without any adverse events | 1 | reduced the severity of HS | lowers AR expression and activity | 
CC(=O)O[C@]1(C(C)=O)CC[C@H]2[C@@H]3C=C(Cl)C4=CC(=O)[C@@H]5C[C@@H]5[C@]4(C)[C@H]3CC[C@@]21C [cyproterone acetate] |  |  |  |  |  | no statistically significant advantage
